Like-named read-outs stand apart in the source and are kept apart here.
How the values were obtained:
[1] = system: ADORA2A on the surface of HaCaT cells; assay: IMQ-induced ADORA2A trafficking, confocal microscopy; format: cell-based; conditions: IMQ 5 μg/ml after PLAG 100 μg/ml 1 hour
Experimental: HaCaT cells were divided into two groups: 1) IMQ treated group and 2) IMQ/PLAG treated group. For IMQ treated group, cells were stimulated with IMQ (5 μg/ml) for 0, 2.5, 5, 7.5, 10, 15, 30, 60, 120 minutes. For IMQ/PLAG treated group, cells were pre-incubated with PLAG (100 μg/ml) for 1 hour and then stimulated with IMQ (5 μg/ml) for 0, 2.5, 5, 7.5, 10, 15, 30, 60, 120 minutes. (A) To detect ADORA2A on the membrane surface, cells were fixed with 2% paraformaldehyde (Sigma-Aldrich) and were blocked with PBS containing 1% BSA (Gibco, Waltham, Mass., USA). They were incubated with rabbit anti-ADORA2A antibody (Thermo) and Alexa488 conjugated anti-rabbit IgG (Invitrogen) without permeabilization. (B) To detect intracellular ROS, cells were treated with FITC conjugated-CM-H2DCFDA (Invitrogen, Carlsbad, Calif., USA) for 30 min before PLAG treating. For confocal microscopy analysis, cells were washed with PBS and mounted in DAPI-containing fluorescence microscopy mounting medium (Invitrogen). Samples were analyzed with a laser scanning confocal microscope (Carl Zeiss, Oberkochen, Germany).

[2] = system: HMGB1, S100A8, S100A9, LDH in supernatant of THP-1 cells; assay: MSU-induced DAMP and LDH release; format: cell-based, human; conditions: PLAG 100 μg/ml, MSU 400 μg/ml
Experimental: THP-1 cells were divided into two groups: 1) MSU treated group and 2) MSU/PLAG treated group. For MSU treated group, THP-1 cells were stimulated with monosodium urate (MSU) crystal (400 μg/ml) for 0, 15, 30, 60 minutes. For MSU/PLAG treated group, THP-1 cells were pre-incubated with PLAG (100 μg/ml) for 1 hour and then stimulated with monosodium urate (MSU) crystal (400 μg/ml) for 0, 15, 30, 60 minutes. Then, cells were centrifuged, and the supernatant was harvested. Add 50 μL 5×SDS sample buffer to 200 μL supernatant of THP-1 cells. Proteins from each sample were separated by sodium dodecyl sulfate (SDS)-polyacrylamide gel electrophoresis on 8% polyacrylamide gels and the proteins were blotted onto a PVDF membrane (Millipore Corporation, Germany). The membrane was blocked with 5% non-fat dried milk (BD bioscience) in PBS containing 0.05% Tween-20 (Calbiochem) for 1 hour. The membrane was incubated with anti-high mobility group box 1 (HMGB1) (abcam), anti-S100A9 (abcam) at 4° C. overnight. After washing with PBS containing 0.05% Tween-20, the membrane was stained with goat anti-rabbit IgG peroxidase (ENZO). Target proteins were detected with Immobilon Western Chemiluminescent HRP Substrate (Millipore Corporation). Lactate dehydrogenase (LDH) of Supernatant was measured using the LDH assay kit.

[3] = system: total body irradiation by γ-ray; assay: Survival rate and body weight of γ-ray radiated mice; format: in vivo
Experimental: 11 weeks Balb/c mice (10 males and 10 females) were divided into two groups: 1) radiated group (6.5Gy of TBI by γ-ray) and 2) PLAG (250 mg/kg of PLAG) administrated group with radiation (6.5Gy of TBI by γ-ray) (FIG. 39A). 6.5Gy of TBI was radiated on Day 0 and 250 mpk of PLAG was orally administrated from day 0 to day 30 daily. The survival rate of the mice was recorded daily until day 30.
11 weeks Balb/c mice (10 males and 10 females) were divided into four groups: 1) radiated group (6.11Gy of TBI by γ-ray), 2) PLAG (10 mg/kg of PLAG) administrated group with radiation (6.11Gy of TBI by γ-ray), 3) PLAG (50 mg/kg of PLAG) administrated group with radiation (6.11Gy of TBI by γ-ray), and 4) PLAG (250 mg/kg of PLAG) administrated group with radiation (6.11Gy of TBI by γ-ray) (FIG. 40A). 6.11Gy of TBI was radiated on Day 0 and […] of PLAG was orally administrated from day 1 to day 30 daily. The survival rate of the mice, was recorded daily until day 30.
11 weeks Balb/c mice (10 males and 10 females) were divided into four groups: 1) radiated group (6.11Gy of TBI by γ-ray), 2) PLAG (10 mg/kg of PLAG) administrated group with radiation (6.11Gy of TBI by γ-ray), 3) PLAG (50 mg/kg of PLAG) administrated group with radiation (6.11Gy of TBI by γ-ray), and 4) PLAG (250 mg/kg of PLAG) administrated group with radiation (6.11Gy of TBI by γ-ray). 6.11Gy of TBI was radiated on Day 0, and […] of PLAG was orally administrated from day 1 to day 30 daily. Body weight of the mice was recorded daily until day 30.

[4] = system: chemoradiation-induced oral mucositis
[5] = Day 9, ChemoRT + PLAG 250 mg/kg

CCCCC/C=C\C/C=C\CCCCCCCC(=O)OC(COC(C)=O)COC(=O)CCCCCCCCCCCCCCC (racemic) [PLAG, 1-palmitoyl-2-linoleoyl-3-acetylglycerol]
GPCR (ADORA2A) returns to its membrane [1]: 10 min
GPCR (ADORA2A) trafficking starts [1]: 2.5 min
release of MSU crystal-induced HMGB1, S100A8, S100A9 and LDH to the supernatant [2]: modulated the release
number of mice whose body weight loss is more than 10% and 20% ([3]; 6.11Gy TBI, 50mpk and 250 mpk): significantly less number
body weight after radiation ([3]; 6.11Gy TBI, PLAG 10 mg/kg): fluctuating and decreasing bodyweight
survival rate after 30 days of radiation ([3]; 6.11Gy TBI, PLAG 10 mg/kg): 5%
body weight loss ([3]; 6.11Gy TBI, PLAG 50 mg/kg): less than 10%
survival rate after 30 days of radiation ([3]; 6.11Gy TBI, PLAG 50 mg/kg): 40%
body weight loss ([3]; 6.11Gy TBI, PLAG 250 mg/kg): less than 10%
survival rate after 30 days of radiation ([3]; 6.11Gy TBI, PLAG 250 mg/kg): 80%
survival rate relative to the radiated group ([3]; 6.5Gy TBI, PLAG 250 mg/kg): 12 times
survival rate 30 days after radiation ([3]; 6.5Gy TBI, PLAG 250 mg/kg daily day 0-30): 60%
body weight Day 9 ([4]; ChemoRT + PLAG 100 mg/kg): 23.98 ± 2.80 g
oral mucosa epithelial thickness ([4]; ChemoRT + PLAG 100 mg/kg): 58.06±24.97 μm
ulceration area percentage ([4]; ChemoRT + PLAG 100 mg/kg): 29.32±5.40%
CXCL2 mRNA expression in tongues (relative band intensity) ([4]; ChemoRT + PLAG 250 mg/kg): 0.23±0.48 AU
IL-6 in tongue tissue extracts ([4]; ChemoRT + PLAG 250 mg/kg): 8.13 ± 1.19 pg/mg
IL-6 mRNA expression in tongues (relative band intensity) ([4]; ChemoRT + PLAG 250 mg/kg): 1.34±1.06 AU
MIP-2 in tongue tissue extracts ([4]; ChemoRT + PLAG 250 mg/kg): 2.69 ± 0.38 pg/mg
body weight Day 9 ([4]; ChemoRT + PLAG 250 mg/kg): 26.46 ± 1.68 g
oral mucosa epithelial thickness ([4]; ChemoRT + PLAG 250 mg/kg): 85.81±12.24 μm
ulceration area percentage ([4]; ChemoRT + PLAG 250 mg/kg): 1.45±2.36%
P-MLKL relative band intensity in tongue lysates ([4]; ChemoRT+PLAG): 3.67±2.56 AU
P-RIPK1 relative band intensity in tongue lysates ([4]; ChemoRT+PLAG): 0.61±0.45 AU
P-RIPK3 relative band intensity in tongue lysates ([4]; ChemoRT+PLAG): 1.27±0.83 AU
body weight Day 0 ([4]; ChemoRT+PLAG): 25.78 ± 1.04 g
neutrophil infiltration in the tongues (IHC NIMP-R14) ([4]; ChemoRT+PLAG): not observed
serum IL-6 [4, 5]: 205.75 ± 30.41 pg/mL
serum MIP-2 [4, 5]: 4.42 ± 4.04 pg/mL
HMGB1 localization in tongue (IHC) ([4]; PLAG-treated mice): remained in the nucleus
body weight Day 9 ([4]; mouse, in vivo): 25.66 ± 0.70 g
